Source: PMC11110727, “Exploiting thiol-functionalized benzosiloxaboroles for achieving diverse substitution patterns – synthesis, characterization and biological evaluation of promising antibacterial agents” (RSC Medicinal Chemistry, 2024)
Converted amounts (≈) assume the structure as drawn.

Legend:
S. aureus ATCC 6538P = assay: Antibacterial activity: MIC/MBC determination and disc-diffusion; assay type: cell-based, Staphylococcus aureus; settings: S. aureus ATCC 6538P; for diameter of inhibition zone: disc-diffusion, — = zone not observed; for MIC / MBC: Staphylococcus aureus, ATCC6538P; for MIC: read-out: MIC; for MBC: read-out: MBC (first MBC where Eagle effect)
Description: (§1) Direct antimicrobial activity was determined against the following standard strains: (1) Gram-positive cocci: methicillin-sensitive Staphylococcus aureus ATCC 6538P (MSSA), methicillin-resistant S. aureus subsp. aureus ATCC 43300 (MRSA), S. epidermidis ATCC 12228, Enterococcus faecium ATCC 6057, E. faecalis ATCC 29212, Bacillus subtilis ATCC 6633; (2) Gram-negative bacteria from Enterobacteriales order: Klebsiella pneumoniae ATCC 13883, Escherichia coli ATCC 25922, Enterobacter cloacae DSM 6234, Proteus mirabilis ATCC 12453, Serratia marcescens ATCC 13880; (3) Gram-negative non-fermentative rods: Acinetobacter baumannii ATCC 19606, Pseudomonas aeruginosa ATCC 27853, Stenotrophomonas maltophilia ATCC 12714, S. maltophilia ATCC 13637, Burkholderia cepacia ATCC 25416, Bordetella bronchiseptica ATCC 4617; (4) yeasts: Candida albicans ATCC 90028, C. krusei ATCC 6258, C. parapsilosis ATCC 22019, C. tropicalis (Castellani) Berkhout ATCC 750, C. tropicalis IBA 171, C. guilliermondii IBA 155, and Saccharomyces cerevisiae ATCC 9763. Moreover, 5 clinical strains of methicillin-resistant S. aureus were also included: NMI 664 K, NMI 1576 K, NMI 1712 K, NMI 1991 K, and NMI 2541 K. All strains were stored at −80 °C. Prior to testing, each bacterial strain was subcultured twice on tryptic soy agar TSA (bioMerieux) medium and yeast strains on Sabouraud dextrose agar (bioMerieux) for 24–48 h at 30 °C to ensure viability. The antimicrobial activity was evaluated as previously described[26] by the disc-diffusion method and the MIC determination assays according to the EUCAST (ref. [71] and [72]) and CLSI (ref. [53] and [73]) recommendations. Assessment of bactericidal (MBC) and fungicidal (MFC) activities was performed according to the CLSI recommendations.[54,74] The following reference agents were used: fluconazole (in the case of fungi), linezolid (for Gram-positive bacteria), and nitrofurantoin (for Gram-negative rods). The new benzosiloxaboroles were dissolved in DMSO (Sigma).

E. faecalis ATCC 29212 = assay: as above; assay type: cell-based; settings: Enterococcus faecalis, ATCC29212; E. faecalis ATCC 29212; read-out: MIC
Outline: (§2)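 Yeasts are grown twice on Sabouraud dextrose agar and bacteria twice on tryptic soy agar (30 °C, 24–48 h). MIC and disc-diffusion testing follow EUCAST/CLSI, and fungicidal or bactericidal activity follows CLSI. Compounds are dissolved in DMSO.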

[1] = system: S. epidermidis ATCC 12228; assay: as above; assay type: cell-based; settings: Staphylococcus epidermidis, ATCC12228, S. epidermidis ATCC 12228; for MIC: read-out: MIC
Outline: as §2

K. pneumoniae ATCC 13883 = assay: Antibacterial activity: MIC/MBC, MIC with PAβN, disc-diffusion; assay type: cell-based, Klebsiella pneumoniae; settings: K. pneumoniae ATCC 13883; for MIC: Klebsiella pneumoniae, ATCC13883, read-out: MIC; for diameter of inhibition zone: (-) = zone not observed, paper discs 9 mm; for -fold reduction of MIC in the presence of PAβN: PAβN 20 μg mL^−1, MHB + 1 mM MgSO4
Description: as §1, with “The following reference agents were used: fluconazole (in the case of fungi), linezolid (for Gram-positive bacteria), and nitrofurantoin (for Gram-negative rods).” left out
(§3) Considering that the MDR efflux pumps often contribute to Gram-negative rod resistance, the MIC values of studied agents, with or without the pump inhibitor, PAβN (20 μg mL^−1) (Sigma), were determined.[75] The MIC was determined using Mueller–Hinton II broth medium (MHB) (Becton Dickinson) by the broth microdilution method, according to the CLSI guideliness.[53] To minimize the influence of PAβN on the destabilization of bacterial cell covers, the tests were conducted in the presence of 1 mM MgSO4 (Sigma).[76] At least a 4-fold reduction in the MIC value after the addition of PAβN was considered significant.[56,77]

A. baumannii ATCC 19606 = assay: as above; assay type: cell-based, Acinetobacter baumannii; settings: A. baumannii ATCC 19606; for MIC / MBC: Acinetobacter baumannii, ATCC19606; for MIC: read-out: MIC; for diameter of inhibition zone: (-) = zone not observed, paper discs 9 mm
Description: as §1, with “The following reference agents were used: fluconazole (in the case of fungi), linezolid (for Gram-positive bacteria), and nitrofurantoin (for Gram-negative rods).” left out
as §3

P. aeruginosa ATCC 27853 = assay: as above; assay type: cell-based; settings: Pseudomonas aeruginosa, ATCC27853, P. aeruginosa ATCC 27853; for MIC: read-out: MIC
Description: as §1, with “The following reference agents were used: fluconazole (in the case of fungi), linezolid (for Gram-positive bacteria), and nitrofurantoin (for Gram-negative rods).” left out
as §3

[2] = system: B. bronchiseptica ATCC 4617; assay: Antibacterial activity: MIC/MBC, disc-diffusion; assay type: cell-based, Bordetella bronchiseptica; settings: B. bronchiseptica ATCC 4617; for MIC / MBC: Bordetella bronchiseptica, ATCC4617; for MIC: read-out: MIC; for diameter of inhibition zone: (-) = zone not observed, paper discs 9 mm
Description: as §1, with “The following reference agents were used: fluconazole (in the case of fungi), linezolid (for Gram-positive bacteria), and nitrofurantoin (for Gram-negative rods).” left out
as §3

C. albicans ATCC 90028 = assay: Antifungal activity: MIC/MFC, disc-diffusion; assay type: cell-based, Candida albicans; settings: for MIC: Candida albicans, ATCC90028, read-out: MIC
Description: as §1

[3] = system: C. guilliermondii IBA 155; assay: Antifungal activity: MIC/MFC, disc-diffusion; assay type: cell-based; settings: for MIC: Meyerozyma guilliermondii, IBA155, read-out: MIC
Description: as §1

S. cerevisiae ATCC 9763 = assay: Antifungal activity: MIC/MFC, disc-diffusion; assay type: cell-based, Saccharomyces cerevisiae; settings: for MIC: Saccharomyces cerevisiae, ATCC9763, read-out: MIC
Description: as §1

Row | SMILES | diameter of inhibition zone (S. aureus ATCC 6538P) [mm] | MIC (S. aureus ATCC 6538P) [µg/mL] | MIC (E. faecalis ATCC 29212) [µg/mL] | MIC [1] [µg/mL] | MIC (K. pneumoniae ATCC 13883) [µg/mL] | MIC (A. baumannii ATCC 19606) [µg/mL] | MIC (P. aeruginosa ATCC 27853) [µg/mL] | MIC [2] [µg/mL] | MIC (C. albicans ATCC 90028) [µg/mL] | MIC [3] [µg/mL] | MIC (S. cerevisiae ATCC 9763) [µg/mL] | MBC (S. aureus ATCC 6538P) [µg/mL] | MBC [1] [µg/mL] | diameter of inhibition zone [2] [mm] | other results
1 | C[Si]1(C)OB(O)c2cc(F)c(SCCC(=O)N3CCOCC3)c(F)c21 [Compound 8, 3-((5,7-Difluoro-3-hydroxy-1,1-dimethyl-1,3-dihydrobenzo[c][1,2,5]oxasilaborol-6-yl)thio)-1-morpholinopropan-1-one] | 25 | 50 (≈ 129 µM) | 400 (≈ 1030 µM) | 100 (≈ 258 µM) | > 400 | > 400 | > 400 | > 400 | > 400 | > 400 | > 400 | – | – | – | –
2 | C[Si]1(C)OB(O)c2cc(F)c(SCCC(=O)Nc3ncccn3)c(F)c21 [Compound 9, 3-((5,7-Difluoro-3-hydroxy-1,1-dimethyl-1,3-dihydrobenzo[c][1,2,5]oxasilaborol-6-yl)thio)-N-(pyrimidin-2-yl)propanamide] | 17 | 25 (≈ 63.2 µM) | 200 (≈ 506 µM) | 50 (≈ 126 µM) | > 400 | > 400 | > 400 | > 400 | > 400 | > 400 | > 400 | 400 (≈ 1010 µM) | 400 (≈ 1010 µM) | – | –
3 | C[Si]1(C)OB(O)c2cc(F)c(SCCC(=O)Nc3cnccn3)c(F)c21 [Compound 10, 3-((5,7-Difluoro-3-hydroxy-1,1-dimethyl-1,3-dihydrobenzo[c][1,2,5]oxasilaborol-6-yl)thio)-N-(pyrazin-2-yl)propanamide] | 24 | 50 (≈ 126 µM) | 200 (≈ 506 µM) | 50 (≈ 126 µM) | > 400 | > 400 | > 400 | > 400 | > 400 | > 400 | > 400 | 400 (≈ 1010 µM) | 400 (≈ 1010 µM) | – | –
4 | Cc1cc(NC(=O)CCSc2c(F)cc3c(c2F)[Si](C)(C)OB3O)no1 [Compound 11, 3-((5,7-Difluoro-3-hydroxy-1,1-dimethyl-1,3-dihydrobenzo[c][1,2,5]oxasilaborol-6-yl)thio)-N-(5-methylisoxazol-3-yl)propanamide] | 21 | 25 (≈ 62.8 µM) | 200 (≈ 502 µM) | 25 (≈ 62.8 µM) | > 400 | > 400 | > 400 | > 400 | > 400 | > 400 | > 400 | 400 (≈ 1000 µM) | 400 (≈ 1000 µM) | – | –
5 | C[Si]1(C)OB(O)c2cc(F)c(SC3CC(=O)NC3=O)c(F)c21 (centres unmarked) [Compound 12, 3-((5,7-Difluoro-3-hydroxy-1,1-dimethyl-1,3-dihydrobenzo[c][1,2,5]oxasilaborol-6-yl)thio)pyrrolidine-2,5-dione] | 20 | 6.25 (≈ 18.2 µM) | 25 (≈ 72.8 µM) | 6.25 (≈ 18.2 µM) | 400 (≈ 1170 µM) | 100 (≈ 291 µM) | > 400 | 12.5 (≈ 36.4 µM) | > 400 | > 400 | > 400 | 100 (≈ 291 µM) | 400 (≈ 1170 µM) | 25 | diameter of inhibition zone (K. pneumoniae ATCC 13883): 17 mm; -fold reduction of MIC in the presence of PAβN (K. pneumoniae ATCC 13883): 4 -fold; diameter of inhibition zone (A. baumannii ATCC 19606): 18 mm; -fold reduction of MIC in the presence of PAβN (A. baumannii ATCC 19606; PAβN 20 μg mL^−1, MHB + 1 mM MgSO4): 2 -fold; MBC (A. baumannii ATCC 19606): 200 µg/mL (≈ 583 µM); MBC [2]: 50 µg/mL (≈ 146 µM)
6 | C[Si]1(C)OB(O)c2ccc(SC3CC(=O)NC3=O)c(F)c21 (centres unmarked) [Compound 13, 3-((7-Fluoro-3-hydroxy-1,1-dimethyl-1,3-dihydrobenzo[c][1,2,5]oxasilaborol-6-yl)thio)pyrrolidine-2,5-dione] | 20 | 25 (≈ 76.9 µM) | 25 (≈ 76.9 µM) | 25 (≈ 76.9 µM) | 200 (≈ 615 µM) | 50 (≈ 154 µM) | 200 (≈ 615 µM) | 12.5 (≈ 38.4 µM) | > 400 | > 400 | > 400 | 200 (≈ 615 µM) | – | 26 | diameter of inhibition zone (K. pneumoniae ATCC 13883): 19 mm; -fold reduction of MIC in the presence of PAβN (K. pneumoniae ATCC 13883): 4 -fold; diameter of inhibition zone (A. baumannii ATCC 19606): 20 mm; MBC (A. baumannii ATCC 19606): 100 µg/mL (≈ 308 µM); MBC (P. aeruginosa ATCC 27853): 400 µg/mL (≈ 1230 µM); MBC [2]: 25 µg/mL (≈ 76.9 µM)
7 | C[Si]1(C)OB(O)c2cc(F)c(SC3CC(=O)N(c4ccc(F)cc4)C3=O)c(F)c21 (centres unmarked) [Compound 14, 3-((5,7-Difluoro-3-hydroxy-1,1-dimethyl-1,3-dihydrobenzo[c][1,2,5]oxasilaborol-6-yl)thio)-1-(4-fluorophenyl)pyrrolidine-2,5-dione] | 22 | 50 (≈ 114 µM) | 25 (≈ 57.2 µM) | 50 (≈ 114 µM) | > 200 | > 200 | > 200 | 200 (≈ 457 µM) | 200 (≈ 457 µM) | 100 (≈ 229 µM) | 50 (≈ 114 µM) | – | – | 11 | diameter of inhibition zone (C. albicans ATCC 90028; C. albicans ATCC 90028, (-) = zone not observed, paper discs 9 mm): 21 mm; diameter of inhibition zone ([3]; C. guilliermondii IBA 155, (-) = zone not observed, paper discs 9 mm): 31 mm; diameter of inhibition zone (S. cerevisiae ATCC 9763; S. cerevisiae ATCC 9763, (-) = zone not observed, paper discs 9 mm): 30 mm
